In patent publication US20260317319A1, “NOVEL ERGOLINES AND METHODS OF TREATING MOOD DISORDERS” (Gilgamesh Pharma Inc., priority 2023, published 2026):

How the values were obtained:
[1] = target: T1, 5-HT2C receptor (Homo sapiens, UniProt P28335); assay: cell-based; conditions: for Emax: read-out: 5-HT2C % Act @ Max Dose; for EC50: read-out: 5-HT2C EC50
T1 sequence (P28335 33-458): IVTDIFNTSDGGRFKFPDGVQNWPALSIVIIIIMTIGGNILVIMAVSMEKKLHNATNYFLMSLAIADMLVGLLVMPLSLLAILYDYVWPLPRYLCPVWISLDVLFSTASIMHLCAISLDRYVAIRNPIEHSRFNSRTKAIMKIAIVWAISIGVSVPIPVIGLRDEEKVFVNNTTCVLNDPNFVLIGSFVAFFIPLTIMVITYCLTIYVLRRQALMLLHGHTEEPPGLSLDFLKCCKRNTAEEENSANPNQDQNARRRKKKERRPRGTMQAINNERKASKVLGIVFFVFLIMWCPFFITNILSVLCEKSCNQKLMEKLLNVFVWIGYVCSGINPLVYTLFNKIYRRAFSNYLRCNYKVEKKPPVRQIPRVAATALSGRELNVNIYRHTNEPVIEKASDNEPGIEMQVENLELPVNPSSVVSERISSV

[2] = tested on: C57BL/6 mice; assay: Automated mouse head twitch response (HTR) assay (video tracking); type: in vivo; conditions: sc; for # HTR/20 min at Most Efficacious Dose: 20 min recording, at each compound's most efficacious dose (35*, 43*, 44*: suppressed below vehicle 14.5, dose is that of least suppression); for # HTR/20 min at Most Efficacious Dose / Peak HTR/min at Most Efficacious Dose: mean; for Most Efficacious Dose for Peak HTR/min: dose giving highest peak HTR/min (35*, 43*, 44*: dose that resulted in the least suppression); for Most Efficacious Dose for # HTR/20 min: dose giving most HTR/20 min (35*, 43*, 44*: dose that resulted in the least suppression); for Peak HTR/min at Most Efficacious Dose: rate over 2-min bins, at each compound's most efficacious dose (35*, 43*, 44*: suppressed below vehicle 1.62, dose is that of least suppression)
Method: Disclosed compounds were tested for their ability to induce a head twitch response (HTR) in mice using an automated video tracking procedure, with the results summarized in Table 8 and FIG. 4.
Animals. Adult male C57BL/6 mice aged 8-10 weeks (Jackson Labs, Bar Harbor, ME; body weight 18-25 g) were used in this experiment. Animals were group housed under environmentally controlled temperatures and 12-hour light/dark cycles (lights on between 06:00-18:00 h), with ad libitum food and water. Mice were habituated to the facility for at least 5 days prior to testing. All animal procedures were approved by the local IACUC and conducted in accordance with the NIH Guide for the Care and Use of Laboratory Animals.
Procedure. Mice were administered one dose of the drug and immediately placed into a small open field for behavioral observation. High-speed video of animals' behavior was captured continuously for 20 min. Video recordings were imported into an image processing software, which detects multiple points of interest on each animal's body, including the left and right ear. HTR events were defined as periodic deviations of ear locations from temporally averaged ear locations. Predefined thresholds for magnitude and frequency of location deviations were used to filter HTR events from random head movements. The method was validated by comparing detected events with manual (human) observations and found to have an accuracy >95%. The total number of HTR events counted during the 20-min recording and the rate in HTR/min calculated over 2-min bins were determined for each animal at each dose.
Statistical Analysis. The data points shown are the mean±standard error of the mean (SEM).

[3] = target: T1, 5-HT2C receptor; assay: Ca2+ flux functional assay at 5-HT2C (WuXi 5-HT2C protocol); type: cell-based; design: expressed in transfected cells; conditions: for Emax: agonist, tested using WuXi 5-HT2C protocol, max dose, read-out: 5-HT2C % Act @ Max Dose (* WuXi protocol)
Method: Disclosed compounds were tested for agonist activity at several serotonin receptor subtypes (5-HT2A, […], 5-HT2C, and 5-HT1A) using Ca^2+ flux functional assays and the 5-HT1B receptor using a cAMP accumulation assay, with the results summarized in Table 4. […] Potent agonist activity was also observed at the other serotonin receptors tested, although the selectivity profile among the receptors varied across compounds. […] However, at the same time, the N-propyl compounds were more efficacious agonists at 5-HT2B than the corresponding N-methyl compounds. The selectivity of disclosed compounds for 5-HT2A over 5-HT2C and 5-HT1A was less predictable and varied widely across compounds. […] An azetidinyl amide substituent tended to increase potency at 5-HT1A relative to 5-HT2A.
Functional Assays at 5-HT2A, 5-HT2B, and 5-HT1A. Agonist activity at 5-HT2A, 5-HT2B, 5HT2C and 5-HT1A receptors was determined using a FLIPR Ca^2+ flux assay at WuXi AppTec (Hong Kong) Limited according to their standard protocols. Briefly, stably transfected cells expressing the receptor of interest and Gα15 in the case of 5-HT1A (HEK293 for 5-HT2A and 5-HT2B; CHO cells for 5-HT1A) were grown and plated in a 384 well plate and incubated at 37° C. and 5% CO2 overnight. A solution of 250 mM probenecid in 1 mL FLIPR assay buffer was prepared fresh. This was combined with a fluorescent dye (Fluo-4 Direct™) to make a final assay concentration of 2.5 mM. Compounds were diluted 1:3.16 for 10 points and 750 nL was added to a 384 well compound plate using ECHO along with 30 μL assay buffer. The fluorescent dye was then added to the assay plate along with assay buffer to a final volume of 40 μL. The cell plate was incubated for 50 min at 37° C. and 5% CO2 and placed into the FLIPR Tetra along with the compound plate. 10 μL of references and compounds were then transferred from the compound plate into the cell plate and the fluorescent signal was read.

[4] = target: 5-HT2A receptor (Homo sapiens, UniProt P28223); assay: biochemical; type: binding; design: expressed in transfected cells; host or cells: HEK293, stably transfected; conditions: [3H]ketanserin 1 nM; HEK293 stable cell line; 1 h, 25 °C
In short: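 Affinity was measured in radioligand binding experiments using [^3H]ketanserin as the labelled ligand, following methods adapted from published procedures.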

[5] = agonist, Ca2+ flux, Eurofins DiscoverX protocol, max dose
[6] = agonist, Ca2+ flux, Eurofins DiscoverX protocol

Chain of 5-HT2A receptor (P28223 whole entry): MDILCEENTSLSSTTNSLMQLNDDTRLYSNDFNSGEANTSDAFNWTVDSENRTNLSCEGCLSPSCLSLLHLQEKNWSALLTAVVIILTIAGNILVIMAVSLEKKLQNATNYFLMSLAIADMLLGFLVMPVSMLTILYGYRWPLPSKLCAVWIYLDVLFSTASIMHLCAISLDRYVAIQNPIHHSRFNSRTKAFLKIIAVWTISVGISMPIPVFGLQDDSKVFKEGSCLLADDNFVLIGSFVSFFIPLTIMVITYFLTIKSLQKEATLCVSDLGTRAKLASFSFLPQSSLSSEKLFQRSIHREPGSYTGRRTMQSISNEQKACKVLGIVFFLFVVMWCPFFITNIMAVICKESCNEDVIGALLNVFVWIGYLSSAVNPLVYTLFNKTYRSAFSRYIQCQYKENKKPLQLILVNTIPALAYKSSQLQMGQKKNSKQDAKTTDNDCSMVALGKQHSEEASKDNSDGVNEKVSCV

| Structure (SMILES) | Emax [1, 5] | # HTR/20 min at Most Efficacious Dose [2] | Most Efficacious Dose for Peak HTR/min [2] | Most Efficacious Dose for # HTR/20 min [2] | Peak HTR/min at Most Efficacious Dose [2] | EC50 [1, 6] | EC50 [3] | Emax [3] | Ki [4] | Emax [1] |
| --- | --- | --- | --- | --- | --- | --- | --- | --- | --- | --- |
| C=CCN1C[C@H](C(=O)N[C@H](C)CC)C=C2c3cccc4[nH]cc(c34)C[C@H]21 [Compound 8, (6aR,9R)-7-allyl-N—((R)-sec-butyl)-4,6,6a,7,8,9-hexahydroindolo[4,3-fg]quinoline-9-carboxamide] | 108% | 21.375 HTR/20 min | (3.2) mg/kg, sc | (1) mg/kg, sc | 2.14 HTR/min | – | – | – | – | – |
| CCN(CC)C(=O)[C@@H]1C=C2c3cccc4[nH]cc(c34)C[C@H]2N(Cc2cccc(OC)c2)C1 [Compound 18, (6aR,9R)—N,N-diethyl-7-(3-methoxybenzyl)-4,6,6a,7,8,9-hexahydroindolo[4,3-fg]quinoline-9-carboxamide] | 7.28% | 7.62 HTR/20 min | (0.1) mg/kg, sc | (3.2) mg/kg, sc | 1.12 HTR/min | > 10000 nM | – | – | – | – |
| CCN(CC)C(=O)[C@@H]1C=C2c3cccc4[nH]cc(c34)C[C@H]2N(Cc2ccc(OC)cc2)C1 [Compound 19, (6aR,9R)—N,N-diethyl-7-(4-methoxybenzyl)-4,6,6a,7,8,9-hexahydroindolo[4,3-fg]quinoline-9-carboxamide] | 1.7% | 9.50 HTR/20 min | (1) mg/kg, sc | (10) mg/kg, sc | 1.31 HTR/min | > 10000 nM | – | – | – | – |
| CCN(CC)C(=O)[C@@H]1C=C2c3cccc4[nH]cc(c34)C[C@H]2N(Cc2ccc(F)cc2)C1 [Compound 49, (6aR,9R)—N,N-diethyl-7-(4-fluorobenzyl)-4,6,6a,7,8,9-hexahydroindolo[4,3-fg]quinoline-9-carboxamide] | – | – | – | – | – | – | > 10000 nM | 1.32% | 1.26 nM | – |
| CCN(CC)C(=O)[C@@H]1C=C2c3cccc4[nH]cc(c34)C[C@H]2N(Cc2ccc(Cl)cc2)C1 [Compound 50, (6aR,9R)-7-(4-chlorobenzyl)-N,N-diethyl-4,6,6a,7,8,9-hexahydroindolo[4,3-fg]quinoline-9-carboxamide] | – | – | – | – | – | – | > 10000 nM | 1.08% | 4.15 nM | – |
| CCN(CC)C(=O)[C@@H]1C=C2c3cccc4[nH]cc(c34)C[C@H]2N(Cc2cccc(O)c2)C1 [Compound 62, (6aR,9R)—N,N-diethyl-7-(3-hydroxybenzyl)-4,6,6a,7,8,9-hexahydroindolo[4,3-fg]quinoline-9-carboxamide] | – | – | – | – | – | – | > 10000 nM | 20.3% | 6.9 nM | – |
| CCN(CC)C(=O)[C@@H]1C=C2c3cccc4[nH]cc(c34)C[C@H]2N(Cc2ccon2)C1 [Compound 70, (6aR,9R)—N,N-diethyl-7-(isoxazol-3-ylmethyl)-4,6,6a,7,8,9-hexahydroindolo[4,3-fg]quinoline-9-carboxamide] | – | – | – | – | – | – | > 10000 nM | 23.9% | 13.6 nM | – |
| CCN(CC)C(=O)[C@@H]1C=C2c3cccc4[nH]cc(c34)C[C@H]2N(Cc2cocn2)C1 [Compound 73, (6aR,9R)—N,N-diethyl-7-(oxazol-4-ylmethyl)-4,6,6a,7,8,9-hexahydroindolo[4,3-fg]quinoline-9-carboxamide] | – | – | – | – | – | – | 1720 nM | 74% | 8.2 nM | – |
| CCN(CC)C(=O)[C@@H]1C=C2c3cccc4[nH]cc(c34)C[C@H]2N(Cc2cccc(C#N)c2)C1 [Compound 76, (6aR,9R)—N,N-diethyl-7-(3-cyanobenzyl)-4,6,6a,7,8,9-hexahydroindolo[4,3-fg]quinoline-9-carboxamide] | – | – | – | – | – | – | > 10000 nM | 0.14% | 98.5 nM | – |
| CC[C@@H](C)NC(=O)[C@@H]1C=C2c3cccc4[nH]cc(c34)C[C@H]2N(C)C1 [Int8] | – | 23.625 HTR/20 min | (0.32) mg/kg, sc | (0.32) mg/kg, sc | 2.06 HTR/min | – | – | – | – | 98.2% |
